The text below walks through data of patent publication US20110136728A1, “METHODS OF INCREASING BONE FORMATION USING LEPTIN-RELATED PEPTIDES” (priority 2009, published 2011).

Non-standard residues stand in square brackets, D forms with d. Residues, ends and D or L forms follow the SMILES beside them.

On the set-up of the data set: species or system male Swiss Webster mice. To be noted: mouse, in vivo. As for the experimental part:
Six week-old male Swiss Webster mice weighing approximately 30 g were obtained from Taconic Farms (Germantown, N.Y., USA). The animals were housed three per cage in polycarbonate cages fitted with stainless steel wire lids and air filters, and supported on ventilated racks (Thoren Caging Systems, Hazelton, Pa., USA) in the Albany Medical College Animal Resources Facility. The mice were maintained at a constant temperature (24° C.) with lights on from 07:00 to 19:00 h, and allowed food and water ad libitum until used for uptake studies. Mouse [[…]]OB3 was prepared commercially as a C-terminal amide by Bachem (Torrance, Calif., USA). For oral delivery, mouse [[…]]-OB3 was dissolved in either phosphate buffered saline (PBS, pH 7.2) or 0.3% […] Therapeutics, San Diego, Calif. USA) reconstituted in water, at a concentration of 1 mg/200 ul and administered by gavage. Is has been previously shown that this concentration to be optimum for regulating energy expenditure, glycemic control, and insulin sensitivity in two genetically obese mouse models. (See Grasso P. et al., Regulatory Pept. 101:123-9 (2001); Grasso P. et al., Regulatory Pept. 85:93-100 (1999); Grasso P. et al., Endocrinology 138:1413-8 (1997); Grasso P. et al., Diabetes 48:2204-9 (1999); and Rozhayskaya-Arena M. et al., Endocrinology 141:2501-7 (2000)). At time zero (0), 200 μl mouse [[…]]-OB3 in PBS or 0.3% […]® was delivered by gavage to each mouse. Following peptide administration, the mice were transferred to separate cages for the designated time period. Five, 10, 20, 40, 60, or 120 min after peptide delivery, the mice (six per time point) were anesthetized with isoflurane (5%) and exsanguinated by cardiac puncture. Euthanasia was confirmed by cervical dislocation. The blood was collected in sterile nonheparinized plastic centrifuge tubes and allowed to stand at room temperature for 1 h. The clotted blood was rimmed from the walls of the tubes with sterile wooden applicator sticks. Individual serum samples were prepared by centrifugation for 30 min at 2600×g in an Eppendorf […], A-4-38 rotor (Eppendorf North America, Westbury, N.Y., USA), The serum samples in each experimental group (n=6) were pooled and stored frozen until assayed for mouse [[…]]-OB3 content by competitive ELISA. Mouse [[…]]-OB3 content of the pooled serum samples was measured by a competitive ELISA developed and validated in our laboratory as previously described. (See Novakovic Z. et al., Regulatory Pept. 154:107-11 (2009)). Serum concentrations of mouse [[…]]OB3 vs. time following oral delivery were plotted using the graphics program SigmaPlot 8.0 (SPSS Science, Chicago, Ill., USA). The area under the curve (AUC) was calculated with a function of this program. The lowest AUC value obtained was arbitrarily set at 1.0. Relative bioavailabilty was determined by comparing all other AUC values to 1.0. The period of time required for the serum concentration of mouse [[…]]-OB3 to be reduced to exactly one-half of the maximum concentration achieved following oral administration of mouse [[…]]-OB3 in the absence or presence of […]® was calculated using the following equation: […] Clearance of mouse [[…]]-OB3 from the plasma following oral delivery was calculated from the AUC using the following equation: CL=Dose/AUC Since the half-life of a drug is inversely related to its clearance from the plasma and directly proportional to its volume of distribution, the apparent volume of distribution of mouse [[…]]-OB3 following oral delivery was calculated from its half-life and clearance using the following equation: […] The relative oral bioavailability of mouse [[…]]-OB3 delivered in […]® was compared to the relative bioavailabilities of intranasal and three commonly used injection methods of delivery recently reported. (See Oliveira Jr. V X. et al., J. Pept. Sci. 14:617-25 (2008)). […]

The term bioavailability denotes the share of a dose that reaches the circulation, judged against a reference dose that is usually intravenous. Read a high bioavailability as much systemic uptake. A word on the Tmax: it is the time at which the peak concentration occurs. In turn, `CC(C)C[C@@H](NC(=O)[C@H](CO)NC(=O)[C@H](CS)NC(=O)[C@@H](N)CO)C(=O)N1CCC[C@H]1C(=O)N[C@@H](CCC(N)=O)C(=O)N[C@H](C(N)=O)[C@@H](C)O` [mouse [D-Leu-4]-OB3] (H-SCS[dL]PQT-NH2; N-terminus assumed) registered a Relative oral bioavailability of 52.2%. The compound also had a bioavailability (Relative oral bioavailability) of 47.3%. Moreover, under “po, 1 mg”, the “Maximum uptake (Cmax) in Intravail relative to PBS” value was 3.6 fold, the “Plasma CL in PBS compared with Intravail” value is listed as “four times faster”, the Tmax was 50 min and the “t1/2 (serum half-life)” value stood at 20.15 min. Moreover, the tmax (po, 1 mg) was found to be 50 min.
